From article PMC7144940, “Principles of RNA and nucleotide discrimination by the RNA processing enzyme RppH” (Nucleic Acids Research, 2020)
Entries after “also recorded” stand apart in the source; their conditions may differ. Read-outs that look alike come from different tables or passages of the source. One block for each molecule: values may come before it.

Key:
Escherichia coli RppH [1] = target: T1, Escherichia coli RppH (Escherichia coli, UniProt P0A776); format: biochemical; parameters: 0.1 mM substrate and 1 μM full-length RppH in case of nucleotides; decahistidine (N, cleaved yes); SUMO (N, cleaved yes); made in house; host or cells: E. coli BL21(DE3); conditions: for hydrolysis by RppH (TLC): 1 mM substrate, 5 μM RppH, 37°C, 1 h
Description: Reactions for thin layer chromatography (TLC) were performed with 1 mM nucleotide substrates and 5 μM of the full-length RppH, in a 10-μl solution containing 10 mM MgCl2 and 50 mM buffer with different pH. Buffers were: MES-NaOH, pH 6.0; Na-cacodylate-HCl, pH 6.5; MOPS-NaOH, pH 7.0; HEPES-NaOH, pH 7.5; Tris-HCl, pH 8.0, 8.5 and 9.0. Reactions were incubated at 37°C for 1 h and quenched with 5 μl of 150 mM ethylenediaminetetraacetic acid (EDTA). Samples were analyzed on PEI-cellulose plates (F-254, Selecto Scientific) in 0.3 M potassium phosphate buffer, pH 7.5, for adenosine triphosphate (ATP), adenosine diphosphate (ADP), GTP, GDP, pppAG (RNA), ppGpp and pppGpp, and pH 3.3 for CTP and CDP, UTP and UDP. RNAs were visualized by UV254 shadowing. The equimolar amount of wild-type E. coli DapF ([8]) was added to the reactions for testing RppH activity stimulation at pH 7.5. Inhibition of RppH activity was conducted using NaF (Sigma-Aldrich) at 1–10 mM. For TLC experiments, original colored images were converted to black-and-white images, and the levels of brightness were adjusted to enhance the contrast and better visualize reaction products.
Target sequence in this assay (P0A776 whole entry): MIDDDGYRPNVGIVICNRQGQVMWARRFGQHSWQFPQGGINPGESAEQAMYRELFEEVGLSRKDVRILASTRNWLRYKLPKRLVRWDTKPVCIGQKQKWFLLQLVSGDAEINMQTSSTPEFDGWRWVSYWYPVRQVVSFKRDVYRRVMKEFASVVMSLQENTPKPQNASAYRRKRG

Escherichia coli RppH [2] = target: T1, Escherichia coli RppH; format: biochemical; parameters: 0.1 mM substrate and 1 μM full-length RppH in case of nucleotides; decahistidine (N, cleaved yes); SUMO (N, cleaved yes); made in house; host or cells: E. coli BL21(DE3); conditions: for initial reaction rate of hydrolysis by RppH: nucleotide substrate 0.1 mM, 1 μM full-length RppH, pH 7.5, 10 mM MgCl2, 37°C, linear regression, n = 2, error is SE
Description: (§1) RppH activity on pppAG and ppAG RNAs, NTPs, NDPs, and ppGpp was determined by kinetic analysis, as described in ref. ([6]). Each reaction mixture contained 0.1 mM substrate and 1 μM full-length RppH in case of nucleotides and 0.1 μM RppH in case of RNA, in a 50-μL solution containing 50 mM HEPES-NaOH, pH 7.5, 10 mM MgCl2 , 0.1% Triton X-100, at 37°C. Reactions were incubated for 0–20 min and quenched with 750 μl of 50 mM sodium acetate, pH 4.5. The quenched reaction samples were analyzed by anion-exchange chromatography on a 5 × 50 mm MonoQ column (GE Healthcare). The reaction products and remaining substrates were eluted with a 0–1.0 M NaCl gradient in 10 mM Tris-HCl, pH 7.5, detected at 260 nm, and the amount of each mono- or oligonucleotide was calculated by using the integration function in UNICORN software (GE Healthcare). The initial reaction rates were calculated based on the ratio between remaining substrate and reaction products using a linear fit model of GraphPad. Each assay was repeated at least twice.
Target sequence in this assay (P0A776 whole entry): as above

Escherichia coli RppH [3] = target: T1, Escherichia coli RppH; experiment: Competition experiments: inhibition of RNA hydrolysis by nucleotides; format: biochemical; parameters: 0.1 mM substrate and 1 μM full-length RppH in case of nucleotides; decahistidine (N, cleaved yes); SUMO (N, cleaved yes); made in house; host or cells: E. coli BL21(DE3)
Description: as §1
Target sequence in this assay (P0A776 whole entry): as above
Competition experiments were conducted using the same protocol as cleavage assays with the 0.1 mM substrate RNA concentration, the nucleotide concentration ranging between 0.1-5.0 mM, and 10 min incubation. The initial reaction rates were calculated based on the ratio between reaction products and remaining substrate using a linear fit model of GraphPad software. Because of peak overlap, inhibition of GTP hydrolysis was determined solely based on quantification of the reaction products. IC50 values were determined using an IC50 model of GraphPad.

Escherichia coli RppH [4] = target: T1, Escherichia coli RppH; experiment: Metal dependence of RppH reactivity (TLC); format: biochemical; parameters: RppHd (Δ161-176); Nterm-Ser0-Met1; decahistidine (N, cleaved yes); SUMO (N, cleaved yes); made in house; host or cells: E. coli BL21(DE3); conditions: 5 mM substrate, 5 μM RppHd
Description: Reactions were performed with 5 mM GTP and 5 μM RppHd, in a 20-μL solution containing 10 mM divalent cation salt (MgCl2, MnCl2, NiCl2, or CaCl2) and 50 mM buffer with different pH (HEPES-Na, pH 7.5; Tris-HCl, pH 8.0, 8.5, 9.0). Reactions were incubated at 37 °C for 1 h and quenched with 10 μL 150 mM EDTA. Samples were analyzed on PEI-cellulose plates in 0.3 M potassium phosphate buffer, pH 7.5, at room temperature. RNAs were visualized by UV254 shadowing.
Target sequence in this assay (P0A776 1-160): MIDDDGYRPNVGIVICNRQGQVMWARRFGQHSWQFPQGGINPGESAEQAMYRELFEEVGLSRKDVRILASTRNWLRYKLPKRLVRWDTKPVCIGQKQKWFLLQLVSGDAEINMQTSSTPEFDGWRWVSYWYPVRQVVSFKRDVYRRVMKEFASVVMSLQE

[5] = target: T2, DapFm (E. coli DapF with Y268A and R36A mutations) (Escherichia coli, UniProt P0A6K1 1-274, Y268A | R36A); experiment: crystal structure; RppHt-DapFm complex formed by mixing DapFm and RppHt at a molar ratio of 1:1.2 (20 mM Tris-HCl pH 8.0, 500 mM NaCl, 1 mM DTT), purified on Superdex 200; crystals from 30% PEG400, 0.1 M CHES pH 9.2, 18°C; soaked with GTP, GDP or pppGpp with MgCl2 and NaF; conditions: both partners purified
T2 construct: extra serine left at the N-terminus of all proteins by the ULP1 cleavage of the His10-SUMO tags; DapF (diaminopimelate epimerase), Escherichia coli, mutated variant of the full-length protein with Y268A and R36A; source: E. coli BL21(DE3), purified (HisTrap FF, tag cleavage by ULP1, Superdex 200); not shown: decahistidine, N-terminal, cleaved; SUMO, N-terminal, cleaved
T2 sequence: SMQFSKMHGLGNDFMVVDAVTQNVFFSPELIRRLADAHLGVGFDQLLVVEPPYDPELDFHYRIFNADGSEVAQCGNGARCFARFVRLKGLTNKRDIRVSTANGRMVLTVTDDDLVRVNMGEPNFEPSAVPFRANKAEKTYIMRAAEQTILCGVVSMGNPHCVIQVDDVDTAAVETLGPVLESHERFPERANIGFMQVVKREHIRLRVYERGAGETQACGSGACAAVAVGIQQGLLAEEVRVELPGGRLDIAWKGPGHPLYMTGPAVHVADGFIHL

[6] = longer incubation, pH 7.5, 1 μM RppH

Molecule: O=c1ccn([C@@H]2O[C@H](CO[P@@](=O)(O)O[P@@](=O)(O)OP(=O)(O)O)[C@@H](O)[C@H]2O)c(=O)[nH]1 (stereo in doubt) [UTP, uridine triphosphate]
- hydrolysis by RppH (TLC) (Escherichia coli RppH [1]; pH 8.5 and 9.0): majority

Molecule: Nc1ncnc2c1ncn2[C@@H]1O[C@H](COP(=O)(O)OP(=O)(O)O)[C@@H](O)[C@H]1O [ADP, adenosine diphosphate]
- hydrolysis by RppH (TLC) (Escherichia coli RppH [1]; pH 8.0): all

Molecule: Nc1ncnc2c1ncn2[C@@H]1O[C@H](COP(=O)(O)OP(=O)(O)OP(=O)(O)O)[C@@H](O)[C@H]1O [ATP, adenosine triphosphate]
- undigested substrate remaining at plateau (Escherichia coli RppH [2]; [6]): ~70%
- initial reaction rate of hydrolysis by RppH (Escherichia coli RppH [2]): 4.2 ± 0.24 µM/min
- hydrolysis by RppH (TLC) (Escherichia coli RppH [1]; pH 8.5 and 9.0): all

Molecule: Nc1ccn([C@@H]2O[C@H](COP(=O)(O)OP(=O)(O)O)[C@@H](O)[C@H]2O)c(=O)n1 [CDP]
- hydrolysis by RppH (TLC) (Escherichia coli RppH [1]; pH 8.0): almost all

Molecule: Nc1ccn([C@@H]2O[C@H](COP(=O)(O)OP(=O)(O)OP(=O)(O)O)[C@@H](O)[C@H]2O)c(=O)n1 [CTP, cytidine triphosphate]
- hydrolysis by RppH (TLC) (Escherichia coli RppH [1]; pH 8.5 and 9.0): majority

Molecule: Nc1nc2c(ncn2[C@@H]2O[C@H](COP(=O)(O)OP(=O)(O)O)[C@@H](O)[C@H]2O)c(=O)[nH]1 [GDP]
- conversion of substrate, without approaching a plateau (Escherichia coli RppH [2]; [6]): ~50%
- initial reaction rate of hydrolysis by RppH (Escherichia coli RppH [2]): 3.4 ± 0.07 µM/min
- IC50 (Escherichia coli RppH [3]; 0.1 mM ppAG RNA, nucleotide 0.1-5.0 mM, 10 mM Mg2+, pH 7.5, 10 min, n = 2, mean ± SE, GTP value estimated from a smooth curve, read-out: IC50, inhibition of RppH reactivity with ppAG RNA): ~0.059 mM
- IC50 (Escherichia coli RppH [3]; 0.1 mM pppAG RNA, nucleotide 0.1-5.0 mM, 10 mM Mg2+, pH 7.5, 10 min, n = 2, mean ± SE, read-out: IC50, inhibition of RppH reactivity with pppAG RNA): ~0.032 mM
- hydrolysis by RppH (TLC) (Escherichia coli RppH [1]; pH 8.0): almost all

Molecule: Nc1nc2c(ncn2[C@@H]2O[C@H](COP(=O)(O)OP(=O)(O)OP(=O)(O)O)[C@@H](O)[C@H]2O)c(=O)[nH]1 [GTP, guanosine triphosphate]
- undigested substrate remaining at plateau (Escherichia coli RppH [2]; [6]): ~70%
- initial reaction rate of hydrolysis by RppH (Escherichia coli RppH [2]): 3.1 ± 0.13 µM/min
- IC50 (Escherichia coli RppH [3]): ~4.1 mM
- IC50 (Escherichia coli RppH [3]; IC50, inhibition of RppH reactivity with pppAG RNA, 0.1 mM pppAG RNA, nucleotide 0.1-5.0 mM, 10 mM Mg2+, pH 7.5, 10 min, n = 2, mean ± SE): 1.58 mM
- IC50 (Escherichia coli RppH [3]; IC50, range over pppAG and ppAG RNA substrates, pppAG and ppAG RNA): 1.6 to 4.1 mM
- IC50 (Escherichia coli RppH [3]; concentration to achieve 2-fold inhibition of the reaction of RppH with ppAG, ppAG RNA): ~4.1 mM
- IC50 (Escherichia coli RppH [3]; concentration to achieve 2-fold inhibition of the reaction of RppH with pppAG, pppAG RNA): ~1.6 mM
- hydrolysis by RppH (TLC) (Escherichia coli RppH [1]; pH 8.5 and 9.0): majority
- hydrolysis by RppH in the presence of Mg2+ (Escherichia coli RppH [4]; 10 mM MgCl2, pH 7.5-9.0, 1 h): support hydrolysis most; also recorded: most efficiently
- hydrolysis by RppH in the presence of Mn2+ (Escherichia coli RppH [4]; 10 mM MnCl2, pH 7.5-9.0, 1 h): very low efficiency; also recorded: some activity
- hydrolysis by RppH in the presence of Ni2+ or Ca2+ (Escherichia coli RppH [4]; 10 mM NiCl2 or CaCl2, pH 7.5-9.0, 1 h): do not support hydrolysis; also recorded: no activity

Molecule: O=c1ccn([C@@H]2O[C@H](COP(=O)(O)OP(=O)(O)O)[C@@H](O)[C@H]2O)c(=O)[nH]1 [UDP]
- hydrolysis by RppH (TLC) (Escherichia coli RppH [1]; pH 8.0): almost all

- effect on E. coli RppH activity (TLC) (Escherichia coli RppH [1]; NaF 1-10 mM, GTP and GDP at pH 8.0, pppGpp and ppGpp at pH 7.5): Inhibition
Molecule: F [fluoride]

Molecule: Nc1nc2c(ncn2[C@@H]2O[C@H](COP(=O)(O)OP(=O)(O)O)[C@@H](OP(=O)(O)OP(=O)(O)O)[C@H]2O)c(=O)[nH]1 [ppGpp]
- initial reaction rate of hydrolysis by RppH (Escherichia coli RppH [2]): 1.20 ± 0.07 µM/min
- times less reactive than GDP (Escherichia coli RppH [2]; ratio of initial rates, pH 7.5): ~2.8
- hydrolysis by RppH (TLC) (Escherichia coli RppH [1]; pH 7.0): slow hydrolysis
- hydrolysis by RppH (TLC) (Escherichia coli RppH [1]; pH 7.5): About half
- hydrolysis by RppH (TLC) (Escherichia coli RppH [1]; pH 8.0): most

Molecule: Nc1nc2c(ncn2[C@@H]2O[C@H](COP(=O)(O)OP(=O)(O)OP(=O)(O)O)[C@@H](OP(=O)(O)OP(=O)(O)O)[C@H]2O)c(=O)[nH]1 [pppGpp]
- initial reaction rate of hydrolysis by RppH (Escherichia coli RppH [2]): 1.30 ± 0.10 µM/min
- times less reactive than GTP (Escherichia coli RppH [2]; ratio of initial rates, pH 7.5): ~2.4
- hydrolysis by RppH (TLC) (Escherichia coli RppH [1]; pH 7.5): very slow hydrolysis
- hydrolysis by RppH (TLC) (Escherichia coli RppH [1]; pH 8.0): moderate hydrolysis

- binding result [5]: binds
B1: RppHt (E. coli RppH, Δ161-176 and Q159A/E160A) (enzyme, Escherichia coli)
chain: SMIDDDGYRPNVGIVICNRQGQVMWARRFGQHSWQFPQGGINPGESAEQAMYRELFEEVGLSRKDVRILASTRNWLRYKLPKRLVRWDTKPVCIGQKQKWFLLQLVSGDAEINMQTSSTPEFDGWRWVSYWYPVRQVVSFKRDVYRRVMKEFASVVMSLAA
notes: extra serine (Ser0) left at the N-terminus by the ULP1 cleavage of the His10-SUMO tags; RNA pyrophosphohydrolase RppH, Escherichia coli, C-terminally truncated variant Δ161-176 (Met1 to residue 160) with Q159A/E160A; printed as Nterm-Ser0-Met1…Ala159-Ala160-Cterm; source: E. coli BL21(DE3), purified (HisTrap FF, tag cleavage by ULP1, HiTrap SP, Superdex 75); not shown: decahistidine, N-terminal, …
